For one assay, the target named is Plasminogen (Homo sapiens, UniProt P00747). Nature of the assay: In vitro inhibitory activity against human enzyme plasmin.
Assay [1] concerns the target T1, Prothrombin (Homo sapiens, UniProt P00734). Nature of the assay: In vitro inhibitory activity against human enzyme thrombin.
Assay [2] has as its target T2, Coagulation factor X (Homo sapiens, UniProt P00742). In words: In vitro inhibitory activity against human enzyme Coagulation factor X.
The target of assay [3] is T3, Serine protease 1 (Homo sapiens, UniProt P07477). In words: In vitro inhibitory activity against human enzyme trypsin.
Assay [4] is described as follows: Ratio against factor Xa to prothrombinase.
The target of assay [5] is T2, Coagulation factor X. Nature of the assay: In vitro inhibitory activity against human prothrombinase.
For assay [6], the target named is T3, Serine protease 1. Nature of the assay: In vitro evaluation of inhibition of cleavage of the chromogenic substrate by human enzyme trypsin.
For assay [7], the target named is T1, Prothrombin. In words: In vitro inhibitory activity against by human enzyme thrombin.
Assay [8] deals with T2, Coagulation factor X. In words: In vitro inhibitory activity against prothrombinase.

Where only a bound is given, the exact number is not on record here.

A word on the IC50: it is the midpoint of a concentration-inhibition curve.

T3 sequence (P07477 whole entry): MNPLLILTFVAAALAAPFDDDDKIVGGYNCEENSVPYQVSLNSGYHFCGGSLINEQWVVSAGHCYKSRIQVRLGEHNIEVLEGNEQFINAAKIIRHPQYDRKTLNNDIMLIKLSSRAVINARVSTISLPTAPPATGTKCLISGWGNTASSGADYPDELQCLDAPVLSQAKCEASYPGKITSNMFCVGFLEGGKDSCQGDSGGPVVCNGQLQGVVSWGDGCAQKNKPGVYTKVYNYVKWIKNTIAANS
T2 sequence (P00742 41-179 limits assumed): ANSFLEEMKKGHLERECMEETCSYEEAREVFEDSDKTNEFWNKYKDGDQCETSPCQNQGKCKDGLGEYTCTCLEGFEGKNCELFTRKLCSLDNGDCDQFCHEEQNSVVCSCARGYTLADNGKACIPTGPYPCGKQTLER
T2 sequence (P00742 235-488 limits assumed): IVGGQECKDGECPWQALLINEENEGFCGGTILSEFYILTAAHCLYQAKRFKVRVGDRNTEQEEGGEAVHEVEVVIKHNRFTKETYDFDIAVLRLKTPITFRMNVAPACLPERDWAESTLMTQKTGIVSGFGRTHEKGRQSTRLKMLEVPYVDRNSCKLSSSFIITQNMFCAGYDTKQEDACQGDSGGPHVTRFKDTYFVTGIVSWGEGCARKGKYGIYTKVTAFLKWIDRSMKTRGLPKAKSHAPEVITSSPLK
Chain of Plasminogen (P00747 97-580 limits assumed): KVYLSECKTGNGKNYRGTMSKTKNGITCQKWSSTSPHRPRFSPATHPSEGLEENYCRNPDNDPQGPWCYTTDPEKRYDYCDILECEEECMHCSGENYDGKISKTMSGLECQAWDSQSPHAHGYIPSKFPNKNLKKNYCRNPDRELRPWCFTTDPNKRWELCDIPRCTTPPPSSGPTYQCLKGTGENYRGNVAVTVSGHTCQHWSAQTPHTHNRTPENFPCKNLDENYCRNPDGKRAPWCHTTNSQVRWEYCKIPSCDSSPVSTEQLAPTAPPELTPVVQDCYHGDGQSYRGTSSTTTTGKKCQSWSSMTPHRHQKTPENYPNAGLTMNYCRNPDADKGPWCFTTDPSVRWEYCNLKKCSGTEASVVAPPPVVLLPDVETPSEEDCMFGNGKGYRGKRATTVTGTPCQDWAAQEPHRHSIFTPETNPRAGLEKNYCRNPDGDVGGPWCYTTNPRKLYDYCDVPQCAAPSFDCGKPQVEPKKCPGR
Chain of Plasminogen (P00747 581-810 limits assumed): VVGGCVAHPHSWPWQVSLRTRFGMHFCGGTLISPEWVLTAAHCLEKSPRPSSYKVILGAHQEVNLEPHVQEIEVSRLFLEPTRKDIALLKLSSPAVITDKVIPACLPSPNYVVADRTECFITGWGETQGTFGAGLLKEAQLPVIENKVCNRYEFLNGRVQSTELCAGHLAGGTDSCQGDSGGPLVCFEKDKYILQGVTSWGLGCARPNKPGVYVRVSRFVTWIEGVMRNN

On to `N=C(N)N1CCC[C@H](NC(=O)CN2C(=O)[C@H](NS(=O)(=O)Cc3ccccc3)CCc3ccccc32)C1O` (some centres not stated), for which the IC50 at Plasminogen was greater than 2500 nM; on Prothrombin [1], 192 nM; at Coagulation factor X [2], 49 nM; on Serine protease 1 [3] it was 135 nM.

In the case of `COc1ccc2c(c1)N(CC(=O)N[C@H]1CCCN(C(=N)N)C1O)C(=O)[C@@H](NS(=O)(=O)Cc1ccccc1)CC2` (some centres not stated), the IC50 is greater than 2500 nM against Plasminogen; greater than 2500 nM against Prothrombin [1]; 64.3 nM against Coagulation factor X [5]; 28.9 nM on Coagulation factor X [2]; 40 nM at Serine protease 1 [6]. In assay [4], the Ratio was 2.2.

For `COc1cccc2c1CC[C@H](NS(=O)(=O)Cc1ccccc1)C(=O)N2CC(=O)N[C@H]1CCCN(C(=N)N)C1O` (some centres not stated), the IC50 against Plasminogen is greater than 2500 nM; on Prothrombin [1], 235 nM; against Coagulation factor X [5], 26.7 nM; on Coagulation factor X [2] it was 8.6 nM; against Serine protease 1 [6] it was 77 nM. In addition, the Ratio in assay [4] is 3.1.

As for `N=C(N)N1CCC[C@H](NC(=O)CN2C(=O)[C@@H](NS(=O)(=O)Cc3ccccc3)CCc3ccccc32)C1O` (some centres not stated), the IC50 against Plasminogen was greater than 2500 nM; at Prothrombin [1], 178 nM; against Coagulation factor X [5] it was 17.1 nM; against Coagulation factor X [2] it was 7.3 nM; at Serine protease 1 [3], 26 nM. In assay [4], the Ratio was found to be 2.3.

`COc1ccc2c(c1)CC[C@H](NS(=O)(=O)Cc1ccccc1)C(=O)N2CC(=O)N[C@H]1CCCN(C(=N)N)C1O` (some centres not stated): the IC50 on Plasminogen was greater than 2500 nM; on Prothrombin [1] it was greater than 2500 nM; against Coagulation factor X [5], 34.9 nM; at Coagulation factor X [2] it was 7.2 nM; against Serine protease 1 [6] it was 110 nM. Further, the Ratio in assay [4] amounted to 4.8.

As to `COc1ccc2c(c1)CC[C@H](NS(=O)(=O)c1ccc3ccccc3c1)C(=O)N2CC(=O)N[C@H]1CCCN(C(=N)N)C1O` (some centres not stated), the half-inhibitory concentration (IC50) on Plasminogen is greater than 2500 nM; on Coagulation factor X [5], 19.1 nM; at Coagulation factor X [2], 3.6 nM; at Serine protease 1 [6] it was 27 nM; on Prothrombin [7], 285 nM. For the same molecule, in assay [4], the Ratio is 5.3.

Turning to `COc1ccc2c(c1)CC[C@H](NS(=O)(=O)CC1CCCCC1)C(=O)N2CC(=O)N[C@H]1CCCN(C(=N)N)C1O` (some centres not stated), the IC50 against Plasminogen was greater than 2500 nM; against Prothrombin [1], 829 nM; against Coagulation factor X [2], 1.9 nM; on Serine protease 1 [3], 1.5 nM; against Coagulation factor X [8], 9.9 nM. For the same molecule, the Ratio in assay [4] was determined as 5.2.

For `N=C(N)N1CCC[C@H](NC(=O)CN2CCCC[C@H](NS(=O)(=O)Cc3ccccc3)C2=O)C1O` (some centres not stated), the IC50 against Plasminogen is greater than 2500 nM; against Coagulation factor X [2] it was 20.6 nM; against Serine protease 1 [3], 75 nM.

Take `N=C(N)N1CCC[C@H](NC(=O)CN2C(=O)C(NS(=O)(=O)Cc3ccccc3)Cc3ccccc32)C1O` (some centres not stated): the IC50 against Plasminogen is greater than 2500 nM; against Prothrombin [1] it was 17.9 nM; against Coagulation factor X [2] it was greater than 2500 nM; on Serine protease 1 [3], 289 nM.
